Laboratory results from US20040006077A1, “Thiazine and oxazine derivatives as MMP-13 inhibitors” (priority 2002, published 2004).

Assays:
Type in all cases: biochemical
[1] = molecular target: T1, MMP-1 (Homo sapiens, UniProt P03956); experiment: MMP-13 test adapted to MMP-1
T1 sequence (P03956 100-469): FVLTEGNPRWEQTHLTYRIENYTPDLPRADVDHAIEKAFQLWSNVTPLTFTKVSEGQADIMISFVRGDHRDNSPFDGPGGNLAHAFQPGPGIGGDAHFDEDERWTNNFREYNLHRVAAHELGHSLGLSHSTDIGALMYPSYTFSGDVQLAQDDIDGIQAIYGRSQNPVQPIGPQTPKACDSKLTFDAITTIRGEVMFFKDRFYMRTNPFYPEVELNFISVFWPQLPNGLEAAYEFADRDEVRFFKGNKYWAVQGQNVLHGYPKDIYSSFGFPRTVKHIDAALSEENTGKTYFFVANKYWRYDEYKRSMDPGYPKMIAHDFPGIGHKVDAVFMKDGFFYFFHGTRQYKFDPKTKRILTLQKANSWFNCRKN

[2] = molecular target: T2, MMP-7 (Homo sapiens, UniProt P09237); experiment: MMP-13 test adapted to MMP-7
T2 sequence (P09237 95-267): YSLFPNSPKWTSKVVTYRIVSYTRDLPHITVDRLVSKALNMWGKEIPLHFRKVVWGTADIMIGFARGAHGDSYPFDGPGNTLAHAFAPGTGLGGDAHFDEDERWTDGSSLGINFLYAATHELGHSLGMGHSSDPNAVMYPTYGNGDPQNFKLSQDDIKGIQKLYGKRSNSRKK
Experimental: (§1) The inhibitory activity of the compounds of formula (I) according to the invention with respect to matrix metalloprotease-13 is evaluated by testing the ability of the compounds of the invention to inhibit the proteolysis of a peptide substrate with MMP-13.
(§2) The peptide substrate used in the test is the following peptide: Ac-Pro-Leu-Gly-thioester-Leu-Leu-Gly-OEt.
(§3) The inhibitory activity of a compound of formula (I) according to the invention is expressed as the IC50 value, which is the concentration of inhibitor for which an inhibition of 50% of the activity of the matrix metalloprotease under consideration is observed. […]
(§4) The concentrations of inhibitors present in the test samples range from 100 μM to 0.5 nM. The measurement of the proteolysis of the substrate peptide is monitored by measuring the absorbance at 405 nm using a spectrophotometer for reading microplates, at the laboratory temperature, the measurements being carried out continuously for 10 to 15 minutes.
(§5) The IC50 values are calculated from a curve in which the percentage of the catalytic activity relative to the control is represented on the X-axis and the concentration of inhibitor is represented on the Y-axis. […]

[3] = molecular target: MMP-3 (Homo sapiens, UniProt P08254); experiment: MMP-13 test adapted to MMP-3
Sequence of MMP-3 (P08254 100-477, species assumed): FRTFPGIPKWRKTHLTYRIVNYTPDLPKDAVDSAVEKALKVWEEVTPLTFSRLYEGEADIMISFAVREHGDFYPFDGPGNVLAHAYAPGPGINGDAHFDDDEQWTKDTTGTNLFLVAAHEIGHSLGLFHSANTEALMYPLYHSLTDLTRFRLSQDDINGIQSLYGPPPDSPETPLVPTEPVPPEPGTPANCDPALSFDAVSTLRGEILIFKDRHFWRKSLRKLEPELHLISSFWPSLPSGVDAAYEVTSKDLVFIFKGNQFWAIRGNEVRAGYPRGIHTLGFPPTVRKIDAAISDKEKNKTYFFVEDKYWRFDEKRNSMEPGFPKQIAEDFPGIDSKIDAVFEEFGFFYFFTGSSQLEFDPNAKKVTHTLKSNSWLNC
Experimental: as §1, §2, §3, §4, §5

[4] = molecular target: T3, catalytic domain of human MMP-13 (Homo sapiens, UniProt P45452); experiment: Inhibition of proteolysis of thioester peptide substrate by MMP-13; conditions: peptide substrate Ac-Pro-Leu-Gly-thioester-Leu-Leu-Gly-OEt 100 μM, pH 7.0, absorbance at 405 nm
T3 construct: 2.5 nM of the catalytic domain of human MMP-13
Experimental: as §1, §2
The inhibitory activity of a compound of formula (I) according to the invention is expressed as the IC50 value, which is the concentration of inhibitor for which an inhibition of 50% of the activity of the matrix metalloprotease under consideration is observed.
To carry out this test, a reaction medium of 100 μt volume is prepared, containing: 50 mM of HEPES buffer, 10 mM of CaCl2 and 1 mM of 5,5′-dithiobis-(2-nitrobenzoic acid) (DTNB), and 100 μM of substrate, the pH being adjusted to 7.0.
Increasing concentrations of the inhibitory compound present in a 2.0% DMSO solution and 2.5 nM of the catalytic domain of human MMP-13 are added to the test samples.
as §4
The IC50 values are calculated from a curve in which the percentage of the catalytic activity relative to the control is represented on the X-axis and the concentration of inhibitor is represented on the Y-axis.

IC50 [1] [µM] | IC50 [2] [µM] | IC50 [3] [µM] | IC50 [4] [µM] | Structure (SMILES)
30 | 30 | 18 | 0.037 | COc1ccc(CNC(=O)c2ccc3sc(=O)n(Cc4ccccc4)c(=O)c3c2)cc1 [Example 1, 3-Benzyl-2,4-dioxo-3,4-dihydro-2H-benz[e][1,3]thiazine-6-carboxylic acid 4-methoxy benzylamide]
– | – | – | 0.063 | COc1ccc(CNC(=O)c2ccc3oc(=O)n(Cc4ccc(OC)cc4)c(=O)c3c2)cc1 [Example 2]
– | – | – | 0.0012 | O=C(O)c1ccc(Cn2c(=O)sc3ccc(C#CCc4ccccc4)cc3c2=O)cc1 [Example 3, 4-[2,4-Dioxo-6-(3-phenyl-prop-1ynyl)-4H-1,3-benzothiazin-3-ylmethyl]-benzoic acid]
